Results reported in patent publication US20160122386A1, “V1A RECEPTOR AGONISTS” (FERRING B.V., priority 2014, published 2016).
pEC50: −log10 of the molar value. Read-outs that look alike come from different tables or passages of the source. Starred links: 1 amine or outer side, 2 acyl side, 3 side chain; linkers in the order of their positions; H or OH if unused. Positions of bridges follow the written chain, without caps; N, C: chain ends. Non-standard residues stand in square brackets, D forms with d. Residues, ends and D or L forms follow the SMILES beside them. Chains are numbered I, II in the order given. *: point of attachment. Orn((CH2)6NH2) = O=C([C@H](CCCNCCCCCCN[*:3])N[*:1])[*:2]; d(isoGln) = NC(=O)[C@@H](CCC(=O)[*:2])N[*:1]; isoGln = NC(=O)[C@H](CCC(=O)[*:2])N[*:1]; d(εLys) = N[C@H](CCCCN[*:1])C(=O)[*:2]; εLys = N[C@@H](CCCCN[*:1])C(=O)[*:2]; X4 = N[C@H](CCC(=O)[*:2])C(=O)[*:1]; Aad = N[C@@H](CCCC(=O)O)C(=O)O; Cit = NC(=O)NCCC[C@H](N)C(=O)O; Suc = O=C(CCC(=O)[*:2])[*:1]; Dab = NCC[C@H](N)C(=O)O; PhAc = O=C(Cc1ccccc1)*; Ava = NCCCCC(=O)O

Target: T1, human V1aR (Homo sapiens, UniProt P37288)
T1 construct: expressed in transfected cells
Assay: Agonist activity at vasopressin V1a receptors, cell-based FLIPR calcium assay
Conditions: for Emax: read-out: Efficacy Avg. (%)
Outline: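 HEK Flp-In cells stably expressing human V1aR were loaded with Calcium 4 dye plus 2.5 mM probenecid for 1 h at 37 °C, then given half-log compound concentrations (final 0.1% DMSO) on FLIPR Tetra.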

T1 sequence (P37288 whole entry): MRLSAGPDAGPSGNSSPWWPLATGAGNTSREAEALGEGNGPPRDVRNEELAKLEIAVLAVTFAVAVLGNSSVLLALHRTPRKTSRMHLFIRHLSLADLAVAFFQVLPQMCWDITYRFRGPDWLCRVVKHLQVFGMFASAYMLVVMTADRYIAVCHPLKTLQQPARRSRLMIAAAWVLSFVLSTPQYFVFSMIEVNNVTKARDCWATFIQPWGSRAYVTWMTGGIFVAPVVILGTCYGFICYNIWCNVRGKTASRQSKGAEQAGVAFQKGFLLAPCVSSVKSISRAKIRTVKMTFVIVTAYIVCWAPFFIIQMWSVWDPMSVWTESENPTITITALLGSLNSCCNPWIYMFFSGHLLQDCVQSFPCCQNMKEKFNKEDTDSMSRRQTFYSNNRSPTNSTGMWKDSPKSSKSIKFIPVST

pEC50 (HEK-flpin cells stably expressing hV1aR, intracellular calcium fluorescence, averaged, read-out: EC50 (Avg)) | SMILES | Emax | pEC50
8.54 | CCCCCCC(=O)N[C@H](Cc1ccc(OC)cc1)C(=O)N[C@@H](Cc1ccccc1)C(=O)N[C@@H](CCC(N)=O)C(=O)N[C@@H](CC(N)=O)C(=O)N[C@@H](C)C(=O)N1CCC[C@H]1C(=O)N[C@@H](CCCNC(=N)N)C(=O)N[C@@H](CCC(=O)NCCCCCCNCCC[C@H](NC(=O)[C@@H]1CCCN1C(=O)[C@@H]1CSSC[C@H](N)C(=O)N[C@@H](Cc2ccccc2)C(=O)N[C@@H]([C@@H](C)CC)C(=O)N[C@@H](CCC(N)=O)C(=O)N[C@@H](CC(N)=O)C(=O)N1)C(=O)NCC(N)=O)C(N)=O [Compound 17] | 62% | 
 | CC[C@H](C)[C@@H]1NC(=O)[C@H](Cc2ccccc2)NC(=O)[C@@H](N)CSSC[C@@H](C(=O)N2CCC[C@H]2C(=O)N[C@@H](CCNC(=O)[C@@H](N)CCCCNC(=O)CC[C@H](NC(=O)[C@H](CCCNC(=N)N)NC(=O)[C@@H]2CCCN2C(=O)[C@H](CCCNC(=N)N)NC(=O)[C@H](CC(N)=O)NC(=O)[C@H](CCC(N)=O)NC(=O)[C@@H](NC(=O)[C@@H](Cc2ccc(OC)cc2)NC(=O)Cc2ccccc2)[C@@H](C)CC)C(N)=O)C(=O)NCC(N)=O)NC(=O)[C@H](CC(N)=O)NC(=O)[C@H](CCC(N)=O)NC1=O [Compound 36] (I: H-CFIQNCP[Dab]G-NH2 / II: PhAc-[dY](Me)IQNRPR[isoGln][εLys]; disulfide I:1-I:6; amide I:8-II:C) | 46% | 8.92
 | CC[C@H](C)[C@@H]1NC(=O)[C@H](Cc2ccccc2)NC(=O)[C@@H](N)CSSC[C@@H](C(=O)N2CCC[C@H]2C(=O)N[C@@H](CCCNCCCCCNC(=O)CC[C@H](NC(=O)[C@H](CCCNC(=N)N)NC(=O)[C@@H]2CCCN2C(=O)[C@H](Cc2c[nH]cn2)NC(=O)[C@H](CC(N)=O)NC(=O)[C@H](CCC(N)=O)NC(=O)[C@H](Cc2ccccc2)NC(=O)[C@@H](Cc2ccc(OC)cc2)NC(=O)Cc2ccccc2)C(N)=O)C(=O)NCC(N)=O)NC(=O)[C@H](CC(N)=O)NC(=O)[C@H](CCC(N)=O)NC1=O [Compound 13] | 48% | 8.62
 | CC[C@H](C)[C@@H]1NC(=O)[C@H](Cc2ccccc2)NC(=O)[C@@H](O)CSSC[C@@H](C(=O)N2CCC[C@H]2C(=O)N[C@@H](CCCNCCCCCNC(=O)CC[C@H](NC(=O)[C@H](CCCNC(=N)N)NC(=O)[C@@H]2CCCN2C(=O)[C@H](C)NC(=O)[C@H](CC(N)=O)NC(=O)[C@H](CCC(N)=O)NC(=O)[C@H](Cc2ccccc2)NC(=O)[C@@H](Cc2ccc(OC)cc2)NC(=O)Cc2ccccc2)C(N)=O)C(=O)NCC(N)=O)NC(=O)[C@H](CC(N)=O)NC(=O)[C@H](CCC(N)=O)NC1=O [Compound 23] | 51% | 8.77
 | CC[C@H](C)[C@@H]1NC(=O)[C@H](Cc2ccccc2)NC(=O)[C@@H](N)CSSC[C@@H](C(=O)N2CCC[C@H]2C(=O)N[C@@H](CCNC(=O)[C@@H](N)CCCCNC(=O)CC[C@H](NC(=O)[C@H](CCCNC(=N)N)NC(=O)[C@@H]2CCCN2C(=O)[C@H](CCCNC(N)=O)NC(=O)[C@H](CC(N)=O)NC(=O)[C@H](CCC(N)=O)NC(=O)[C@H](Cc2ccccc2)NC(=O)[C@@H](Cc2ccc(OC)cc2)NC(=O)Cc2ccccc2)C(N)=O)C(=O)NCC(N)=O)NC(=O)[C@H](CC(N)=O)NC(=O)[C@H](CCC(N)=O)NC1=O [Compound 44] (I: H-CFIQNCP[Dab]G-NH2 / II: PhAc-[dY](Me)FQN[Cit]PR[isoGln][εLys]; disulfide I:1-I:6; amide I:8-II:C) | 40% | 8.70
 | CC[C@H](C)[C@@H]1NC(=O)[C@H](Cc2ccccc2)NC(=O)[C@@H](N)CSSC[C@@H](C(=O)N2CCC[C@H]2C(=O)N[C@@H](CCNC(=O)[C@@H](N)CCCCNC(=O)CC[C@H](NC(=O)[C@H](CCCNC(=N)N)NC(=O)[C@@H]2CCCN2C(=O)[C@H](CCCNC(N)=O)NC(=O)[C@H](CC(N)=O)NC(=O)[C@H](CCC(N)=O)NC(=O)[C@H](Cc2ccccc2)NC(=O)[C@@H](Cc2ccc(OC)cc2)NC(=O)Cc2ccccc2)C(N)=O)C(=O)NCC(N)=O)NC(=O)[C@H](CC(N)=O)NC(=O)[C@H](CCCC(N)=O)NC1=O [Compound 47] (I: H-CFI[Aad](NH2)NCP[Dab]G-NH2 / II: PhAc-[dY](Me)FQN[Cit]PR[isoGln][εLys]; disulfide I:1-I:6 (inferred); amide I:8-II:C (inferred)) | 45% | 8.74
 | CC[C@H](C)[C@@H]1NC(=O)[C@H](Cc2ccccc2)NC(=O)[C@@H](O)CSSC[C@@H](C(=O)N2CCC[C@H]2C(=O)N[C@@H](CCNC(=O)[C@@H](N)CCCCNC(=O)CC[C@H](NC(=O)[C@H](CCCNC(=N)N)NC(=O)[C@@H]2CCCN2C(=O)[C@H](CCCNC(=N)N)NC(=O)[C@H](CC(N)=O)NC(=O)[C@H](CCC(N)=O)NC(=O)[C@H](Cc2ccccc2)NC(=O)[C@@H](Cc2ccc(OC)cc2)NC(=O)Cc2ccccc2)C(N)=O)C(=O)NCC(N)=O)NC(=O)[C@H](CC(N)=O)NC(=O)[C@H](CCC(N)=O)NC1=O [Compound 31] | 63% | 9.08
 | CC[C@H](C)[C@@H]1NC(=O)[C@H](Cc2ccccc2)NC(=O)[C@@H](N)CSSC[C@@H](C(=O)N2CCC[C@H]2C(=O)N[C@@H](CCCNCCCCCNC(=O)CC[C@H](NC(=O)[C@H](CCCNC(=N)N)NC(=O)[C@@H]2CCCN2C(=O)[C@H](CCCNC(N)=O)NC(=O)[C@H](CC(N)=O)NC(=O)[C@H](CCC(N)=O)NC(=O)[C@H](CC(C)(C)C)NC(=O)[C@@H](Cc2ccc(OC)cc2)NC(=O)Cc2ccccc2)C(N)=O)C(=O)NCC(N)=O)NC(=O)[C@H](CC(N)=O)NC(=O)[C@H](CCC(N)=O)NC1=O [Compound 46] | 62% | 8.85
 | CC[C@H](C)[C@@H]1NC(=O)[C@H](Cc2ccccc2)NC(=O)[C@@H](N)CSSC[C@@H](C(=O)N2CCC[C@H]2C(=O)N[C@@H](CCNC(=O)[C@H](N)CCCCNC(=O)CC[C@@H](NC(=O)[C@H](CCCNC(=N)N)NC(=O)[C@@H]2CCCN2C(=O)[C@H](C)NC(=O)[C@H](CC(N)=O)NC(=O)[C@H](CCC(N)=O)NC(=O)[C@H](Cc2ccccc2)NC(=O)[C@@H](Cc2ccc(OC)cc2)NC(=O)Cc2ccccc2)C(N)=O)C(=O)NCC(N)=O)NC(=O)[C@H](CC(N)=O)NC(=O)[C@H](CCC(N)=O)NC1=O [Compound 56] (I: H-CFIQNCP[Dab]G-NH2 / II: PhAc-[dY](Me)FQNAPR[d(isoGln)][d(εLys)]; disulfide I:1-I:6; amide I:8-II:C) | 60% | 8.74
 | CC[C@H](C)[C@@H]1NC(=O)[C@H](Cc2ccccc2)NC(=O)[C@@H](N)CSSC[C@@H](C(=O)N2CCC[C@H]2C(=O)N[C@@H](CCCNCCCCCCNC(=O)CCCCNC(=O)CC[C@H](NC(=O)[C@H](CCCNC(=N)N)NC(=O)[C@@H]2CCCN2C(=O)[C@H](C)NC(=O)[C@H](CC(N)=O)NC(=O)[C@H](CCC(N)=O)NC(=O)[C@H](Cc2ccccc2)NC(=O)[C@@H](Cc2ccc(OC)cc2)NC(=O)Cc2ccccc2)C(N)=O)C(=O)NCC(N)=O)NC(=O)[C@H](CC(N)=O)NC(=O)[C@H](CCC(N)=O)NC1=O [Compound 5] | 28% | 8.89
 | CC[C@H](C)[C@@H]1NC(=O)[C@H](Cc2ccccc2)NC(=O)[C@@H](N)CSSC[C@@H](C(=O)N2CCC[C@H]2C(=O)N[C@@H](CCNC(=O)[C@H](N)CCC(=O)NCCCC[C@H](NC(=O)[C@H](CCCNC(=N)N)NC(=O)[C@@H]2CCCN2C(=O)[C@H](C)NC(=O)[C@H](CC(N)=O)NC(=O)[C@H](CCC(N)=O)NC(=O)[C@H](Cc2ccccc2)NC(=O)[C@@H](Cc2ccc(OC)cc2)NC(=O)Cc2ccccc2)C(N)=O)C(=O)NCC(N)=O)NC(=O)[C@H](CC(N)=O)NC(=O)[C@H](CC(N)=O)NC1=O [Compound 66] (I: H-CFINNCP[Dab]G-NH2 / II: PhAc-[dY](Me)FQNAPRK-NH2; disulfide I:1-I:6; linker I:8-II:8 via X4) | 30% | 8.64
 | CC[C@H](C)[C@@H]1NC(=O)[C@H](Cc2ccccc2)NC(=O)[C@@H](N)CSSC[C@@H](C(=O)N2CCC[C@H]2C(=O)N[C@@H](CCCNCCCCCNC(=O)CC[C@H](NC(=O)[C@H](CCCNC(=N)N)NC(=O)[C@@H]2CCCN2C(=O)[C@H](CCN)NC(=O)[C@H](CC(N)=O)NC(=O)[C@H](CCC(N)=O)NC(=O)[C@H](Cc2ccccc2)NC(=O)[C@@H](Cc2ccc(OC)cc2)NC(=O)Cc2ccccc2)C(N)=O)C(=O)NCC(N)=O)NC(=O)[C@H](CC(N)=O)NC(=O)[C@H](CCC(N)=O)NC1=O [Compound 16] | 46% | 8.62
 | CC[C@H](C)[C@@H]1NC(=O)[C@H](Cc2ccccc2)NC(=O)[C@@H](N)CSSC[C@@H](C(=O)N2CCC[C@H]2C(=O)N[C@@H](CCCNCCCCCCNC(=O)CCC(=O)NCCCC[C@H](NC(=O)[C@H](CCCNC(=N)N)NC(=O)[C@@H]2CCCN2C(=O)[C@H](CCCNC(=N)N)NC(=O)[C@H](CC(N)=O)NC(=O)[C@H](CCC(N)=O)NC(=O)[C@H](Cc2ccccc2)NC(=O)[C@@H](Cc2ccc(OC)cc2)NC(=O)Cc2ccccc2)C(N)=O)C(=O)NCC(N)=O)NC(=O)[C@H](CC(N)=O)NC(=O)[C@H](CCC(N)=O)NC1=O [Compound 1] (I: H-CFIQNCP[Orn((CH2)6NH2)]G-NH2 / II: PhAc-[dY](Me)FQNRPRK-NH2; disulfide I:1-I:6; linker I:8-II:8 via Suc) | 30% | 9.00
 | CC[C@H](C)[C@@H]1NC(=O)[C@H](Cc2ccccc2)NC(=O)[C@@H](N)CSSC[C@@H](C(=O)N2CCC[C@H]2C(=O)N[C@@H](CCNC(=O)[C@@H](N)CCCCNC(=O)CCCCNC(=O)CC[C@H](NC(=O)[C@H](CCCNC(=N)N)NC(=O)[C@@H]2CCCN2C(=O)[C@H](C)NC(=O)[C@H](CC(N)=O)NC(=O)[C@H](CCC(N)=O)NC(=O)[C@H](Cc2ccccc2)NC(=O)[C@@H](Cc2ccc(OC)cc2)NC(=O)Cc2ccccc2)C(N)=O)C(=O)NCC(N)=O)NC(=O)[C@H](CC(N)=O)NC(=O)[C@H](CCC(N)=O)NC1=O [Compound 37] (I: H-CFIQNCP[Dab]G-NH2 / II: PhAc-[dY](Me)FQNAPR[isoGln][Ava][εLys]; disulfide I:1-I:6; amide I:8-II:C) | 44% | 8.89
